Test results published in patent US20240246948A1, “BENZAMIDE DERIVATIVE, METHOD FOR PREPARING SAME, AND PHARMACEUTICAL COMPOSITION FOR PREVENTION OR TREATMENT OF CANCER CONTAINING SAME AS ACTIVE INGREDIENT” (HK INNO.N CORPORATION, priority 2021, published 2024).

Key:
[1] = biological target: Ba/F3 EGFR L858R/T790M (LT) (Homo sapiens, UniProt P00533, T790M/L858R, cells depend on it); assay: Cell growth inhibitory ability in Ba/F3 cells overexpressing EGFR L858R/T790M (MTS, CellTiter 96 AQueous); type: cell-based; details: 72 hours, MTS absorbance at 490 nm, read-out: Ba/F3 EGFR double mutant L858R/T790M, IC50
Procedure: (§1) In order to confirm that the compound represented by formula 1 provided in one aspect of the present invention acts as an allosteric inhibitor against WT and mutant of EGFR, the cell growth inhibitory effect was evaluated in BaF3 cells overexpressing WT and mutant of EGFR.
(§2) More specifically, the cell growth inhibitory ability of the compound of the present invention to the Ba/F3 cell line overexpressing WT and mutant of EGFR was evaluated using CellTiter 96 AQueous Non-Radioactive Cell Proliferation Assay system of Promega, as follows. AQueous Non-Radioactive Cell Proliferation Assay is a method of confirming cell growth inhibitory ability by measuring the degree of color development by reducing MTS (3-(4,5-Dimethylthiazol-2-yl)-5-(3-carboxymethoxyphenyl)-2-(4-sulfophenyl)-2H-tetrazolium) to Formazan by a reductase secreted by mitochondria present in living cells in a cell culture state. The Ba/F3 EGFR WT and Ba/F3 EGFR del19/T790M/C797S (DTC), Ba/F3 EGFR L858R (L), Ba/F3 EGFR L858R/T790M (LT), and Ba/F3 EGFR L858R/T790M/C797S (LTC) mutation cell lines used in the present invention were purchased from the laboratory of Professor Byung-cheol Cho, Yonsei University. All cell lines were cultured in RPMI supplemented with 10% FBS, 1% penicillin-streptomycin and 1 μg/ml of puromycine in a 5% CO2 incubator at 37° C.
(§3) The cell survival inhibitory effect of the compound according to each EGFR mutation was analyzed by the following analysis method.
(§4) BaF3 cells were distributed in a 96-well cell culture plate at the density of 2000˜10000 cells/100 μL/well, and cultured for 24 hours. Thereafter, the concentration of the compound represented by formula 1 provided in one aspect of the present invention was prepared to double the final concentrations of 0.1 nM, 1 nM, 10 nM, 100 nM, 1000 nM and 10000 nM, and the compound was treated to the plate (100 μL/well). The plate was reacted in an incubator at 37° C. for 72 hours. Then, MTS was treated to the plate (20 μL/well) and the plate was incubated at 37° C. for 2 to 4 hours. Finally, after measuring the absorbance at 490 nm using a microplate reader, the relative value compared to 0 nM (% Control) was obtained to confirm the cell growth inhibitory ability of the compound. The measured values were analyzed using Prism program (version 8.0, Graphpad Software, Inc.), and the IC50 value (Inhibition concentration 50), an indicator of the cell growth inhibitory ability of the compound, was calculated.

[2] = biological target: Ba/F3 EGFR L858R/T790M/C797S (LTC) (Homo sapiens, UniProt P00533, T790M/C797S/L858R, cells depend on it); assay: Cell growth inhibitory ability in Ba/F3 cells overexpressing EGFR L858R/T790M/C797S (MTS, CellTiter 96 AQueous); type: cell-based; details: 72 hours, MTS absorbance at 490 nm, read-out: Ba/F3 EGFR triple mutant L858R/T790M/C797S, IC50
Procedure: as §1, §2, §3, §4

Compound | GI50 [1] [nM] | GI50 [2] [nM]
Cc1cc(C(=O)N[C@@H](c2cc3ccccc3[nH]2)c2cc(F)ccc2O)cc(-c2cnc(N3CCC(N)CC3)nc2C)c1 [Example 34, (R)-3-(2-(4-aminopiperidine-1-yl)-4-methylpyrimidine-5-yl)-N-((5-fluoro-2-hydroxyphenyl)(1H-indole-2-yl)methyl)-5-methylbenzamide] | < 30 | 30 to 200
Cc1cc(C(=O)N[C@@H](c2cc3ccccc3[nH]2)c2cc(F)ccc2O)cc(-c2ncc(N3CCN(C(=O)OC(C)(C)C)CC3)cn2)c1 [Example 35, tert-butyl (R)-4-(2-(3-(((5-fluoro-2-hydroxyphenyl)(1H-indole-2-yl)methyl)carbamoyl)-5-methylphenyl)pyrimidine-5-yl)piperazine-1-carboxylate] | > 200 | < 30
Cc1cc(C(=O)N[C@@H](c2cc3ccccc3[nH]2)c2cc(F)ccc2O)cc(-c2ncc(N3CCNCC3)cn2)c1 [Example 36, (R)—N-((5-fluoro-2-hydroxyphenyl)(1H-indole-2-yl)methyl)-3-methyl-5-(5-(piperazine-1-yl)pyrimidine-2-yl)benzamide] | < 30 | < 30
Cc1cc(C(=O)N[C@@H](c2cc3ccccc3[nH]2)c2cc(F)ccc2O)cc(-c2ncc(N3CCN(C)CC3)cn2)c1 [Example 37, (R)—N-((5-fluoro-2-hydroxyphenyl)(1H-indole-2-yl)methyl)-3-methyl-5-(5-(4-methylpiperazine-1-yl)pyrimidine-2-yl)benzamide] | 30 to 200 | < 30
CCCC1CCN(c2cnc(-c3cc(C)cc(C(=O)N[C@@H](c4cc5ccccc5[nH]4)c4cc(F)ccc4O)c3)nc2)CC1 [Example 38, N—[(R)-(5-fluoro-2-hydroxy-phenyl)-(1H-indole-2-yl)methyl]-3-methyl-5-[5-(4-propyl-1-piperidyl)pyrimidine-2-yl]benzamide] | > 200 | > 200
Cc1cc(C(=O)N[C@@H](c2cc3ccccc3[nH]2)c2cc(F)ccc2O)cc(-c2ncc(N3CCC(N(C)C)CC3)cn2)c1 [Example 39, 3-[5-[4-(dimethylamino)-1-piperidyl]pyrimidine-2-yl]-N—[(R)-(5-fluoro-2-hydroxy-phenyl)-(1H-indole-2-yl)methyl]-5-methyl-benzamide] | < 30 | < 30
Cc1cc(C(=O)N[C@@H](c2cc3ccccc3[nH]2)c2cc(F)ccc2O)cc(-c2ncc(N3CCCCC3)cn2)c1 [Example 40, N—[(R)-(5-fluoro-2-hydroxy-phenyl)-(1H-indole-2-yl)methyl]-3-methyl-5-[5-(1-piperidyl)pyrimidine-2-yl]benzamide] | < 30 | 30 to 200
Cc1cc(C(=O)N[C@@H](c2cc3ccccc3[nH]2)c2cc(F)ccc2O)cc(-c2ncc(N3CCN(C4CCN(C)CC4)CC3)cn2)c1 [Example 41, N—[(R)-(5-fluoro-2-hydroxy-phenyl)-(1H-indole-2-yl)methyl]-3-methyl-5-[5-[4-(1-methyl-4-piperidyl)piperazine-1-yl]pyrimidine-2-yl]benzamide] | < 30 | < 30
Cc1cc(C(=O)N[C@@H](c2cc3ccccc3[nH]2)c2cc(F)ccc2O)cc(-c2ccc(CN3CCC(N(C)C)CC3)cn2)c1 [Example 42] | < 30 | 30 to 200
Cc1cc(C(=O)N[C@@H](c2cc3ccccc3[nH]2)c2cc(F)ccc2O)cc(-c2ncc(N3CC[C@@H](N)C3)cn2)c1 [Example 44, 3-[5-[(3R)-3-aminopyrrolidine-1-yl]pyrimidine-2-yl]-N—[(R)-(5-fluoro-2-hydroxy-phenyl)-(1H-indole-2-yl)methyl]-5-methyl-benzamide] | < 30 | < 30
CCN(CC)C1CCN(c2cnc(-c3cc(C)cc(C(=O)N[C@@H](c4cc5ccccc5[nH]4)c4cc(F)ccc4O)c3)nc2)CC1 [Example 45, (R)-3-(5-(4-(diethylamino)piperidine-1-yl)pyrimidine-2-yl)-N-((5-fluoro-2-hydroxyphenyl)(1H-indole-2-yl)methyl)-5-methylbenzamide] | < 30 | < 30
(R)-3-(6-((4-(dimethylamino)piperidine-1-yl)methyl)pyridine-3-yl)-N-((5-fluoro-2-hydroxyphenyl)(1H-indole-2-yl))methyl)-5-methylbenzamide [Example 43] | < 30 | 30 to 200
